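All cell lines were grown in 96-well plates and treated with compound for 48 hours. GI50: concentration for 50% inhibition of growth.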 Calls of active or inactive are those of the source. Rule as the data show it: active = GI50 up to about 1.1 µM and inactive = higher. Some results are limits rather than exact numbers.

Common to all, as to experiment: DTP human tumour cell line panel, 48 h
The test system of assay [1] is 786-0.
Assay [2] deals with EKVX.
In assay [3] the test system is A549.
Assay [4] deals with TK-10.
For assay [5], the system named is SK-MEL-28.
The subject of assay [6] is OVCAR-4.
In assay [7] the test system is LOX IMVI.
Assay [8] has as its system HOP-62.
In assay [9] the test system is Malme-3M.
Assay [10] deals with T47D.
Assay [11] concerns MCF7.
Assay [12] concerns NCI-H23.
Assay [13] deals with U-251.
Assay [14] relates to OVCAR-5.
The test system of assay [15] is MDA-MB-435.
Assay [16] relates to CAKI-1.
Assay [17] deals with KM12.
Assay [18] relates to MOLT-4.
The test system of assay [19] is NCI-H460.
Assay [20] has as its system SK-MEL-2.

Usually GI50 stands for the concentration giving 50% growth inhibition. On to `CC(/C=N/N=C1NCCCCN1)=N\N=C1NCCCCN1`, for which the GI50 in assay [1], in assay [2], in assay [3], in assay [4], in assay [5] and in [6] was > 100 µM (inactive) throughout. The GI50 in assay [7] is 16.7 µM (inactive); in assay [8] it was > 100 µM (inactive); in [9], 35.8 µM (inactive); in assay [10] it was > 100 µM (inactive); in assay [11], 64.9 µM (inactive); in assay [12] it was > 100 µM (inactive). Also, the GI50 is > 100 µM (inactive) in assay [13]; > 100 µM (inactive) in assay [14]; 47.9 µM (inactive) in assay [15]; > 100 µM (inactive) in [16]; > 100 µM (inactive) in [17]; 87.3 µM (inactive) in assay [18]. The GI50 in assay [19] is > 100 µM (inactive).
As for `c1ccc([P+](Cc2ccccc2C[P+](c2ccccc2)(c2ccccc2)c2ccccc2)(c2ccccc2)c2ccccc2)cc1`, the GI50 in assay [1] is > 100 µM (inactive); in assay [20] it was > 100 µM (inactive); in assay [3], > 100 µM (inactive); in assay [4], > 100 µM (inactive); in [5] it was > 100 µM (inactive); in assay [7] it was 37.6 µM (inactive). The GI50 in [8] is > 100 µM (inactive); in [9] it was > 100 µM (inactive); in [10], > 100 µM (inactive); in assay [11], > 100 µM (inactive); in assay [12], 87.3 µM (inactive); in assay [13], 63.5 µM (inactive). Besides, the GI50 in [14] is > 100 µM (inactive); in assay [15], 42.8 µM (inactive); in assay [16], > 100 µM (inactive); in [17], 49.9 µM (inactive); in [19], 38.9 µM (inactive).
As to `O=C1c2ccccc2C(=O)c2c(NC(=O)c3ccc4c5c(ncnc35)-c3ccccc3C4=O)cccc21`, the GI50 in assay [1] is 25.1 µM (inactive); in assay [20], 89.3 µM (inactive); in assay [2], > 100 µM (inactive); in assay [3], > 100 µM (inactive); in [4] it was 21.8 µM (inactive); in assay [5], > 100 µM (inactive). For the same compound, the GI50 was > 100 µM (inactive) in [6]; 14.7 µM (inactive) in assay [8]; > 100 µM (inactive) in assay [9]; > 100 µM (inactive) in [10]; > 100 µM (inactive) in assay [11]; 33.4 µM (inactive) in assay [12]. The GI50 in assay [13] is 31 µM (inactive); in assay [14], > 100 µM (inactive); in assay [15], > 100 µM (inactive); in [16], > 100 µM (inactive); in [17], > 100 µM (inactive); in assay [18] it was > 100 µM (inactive). Also, in assay [19], the GI50 is > 100 µM (inactive).
As for `Nc1nc(=S)n(-c2ccc(Cl)cc2)c2nc3ccccc3cc12`, the GI50 is 53.3 µM (inactive) in assay [1]; 49.7 µM (inactive) in assay [20]; 15.3 µM (inactive) in assay [2]; 97.7 µM (inactive) in [3]; 28.7 µM (inactive) in assay [4]; > 100 µM (inactive) in assay [5]. Further, the GI50 in assay [6] was 46.7 µM (inactive); in [7] it was 44.1 µM (inactive); in [8] it was 55.8 µM (inactive); in assay [9] it was 32.5 µM (inactive); in assay [10], 18.7 µM (inactive); in [11] it was 15.4 µM (inactive). Besides, the GI50 in assay [12] is 56.9 µM (inactive); in assay [13] it was 48.9 µM (inactive); in [14], 83.2 µM (inactive); in assay [15], 80.4 µM (inactive); in assay [16], 30.1 µM (inactive); in assay [17], 29.3 µM (inactive). Further, the GI50 in [19] is 46.2 µM (inactive).
Take `Cc1nc2c(-c3ccccc3)[nH]c(C)c2c(=O)o1`: the GI50 in assay [1] is 61.8 µM (inactive); in assay [20], 46.7 µM (inactive); in assay [2], > 100 µM (inactive); in assay [3] it was 65.2 µM (inactive); in [4] it was > 100 µM (inactive); in [5], > 100 µM (inactive). Further, the GI50 in assay [6] is 70.1 µM (inactive); in assay [7], 42.5 µM (inactive); in assay [8], 33.3 µM (inactive); in [10] it was 44.2 µM (inactive); in [11], 1.39 µM (inactive); in assay [12], 57.7 µM (inactive). The GI50 is 34.9 µM (inactive) in assay [13]; > 100 µM (inactive) in assay [14]; 46.2 µM (inactive) in assay [15]; 37.2 µM (inactive) in assay [16]; > 100 µM (inactive) in assay [17]; 52.5 µM (inactive) in assay [18]. In addition, in assay [19], the GI50 was > 100 µM (inactive).
`CCSC1=N/C(=C\c2ccc(N(C)C)cc2)C(Cl)=N1`: the GI50 in [1], in assay [20], in [2], in [3], in assay [4] and in [5] was > 100 µM (inactive) in each case. Further, the GI50 is > 100 µM (inactive) in [6]; > 100 µM (inactive) in [8]; > 100 µM (inactive) in assay [9]; 37.7 µM (inactive) in assay [10]; > 100 µM (inactive) in assay [11]; > 100 µM (inactive) in assay [12]. In addition, the GI50 in assay [13], in assay [14], in [15], in [16], in assay [17] and in [18] was > 100 µM (inactive) in each case. For the same compound, the GI50 in [19] is > 100 µM (inactive).
With `CCn1c(=O)c2c3cc(O)ccc3oc2c2ccc(O)cc21`, the GI50 in assay [1] was 57.7 µM (inactive); in [2], 24.7 µM (inactive); in assay [3], 24.4 µM (inactive); in assay [4], 24.8 µM (inactive); in [5], 35.8 µM (inactive); in assay [6], 34.8 µM (inactive). Also, the GI50 in assay [8] was 28.8 µM (inactive); in assay [9], 32.7 µM (inactive); in assay [10], 12.6 µM (inactive); in assay [11], 28.6 µM (inactive); in assay [12], 41.3 µM (inactive); in assay [13], 22.9 µM (inactive). The GI50 is 27 µM (inactive) in assay [15]; 34.3 µM (inactive) in [16]; 31.8 µM (inactive) in assay [17]; 16.1 µM (inactive) in assay [18]; 26.9 µM (inactive) in [19].
As for `COc1ccc2c(c1)CCN1CCCc3ccc(OC)cc3C21` (configuration not stated), the GI50 is 49.1 µM (inactive) in assay [1]; 52.1 µM (inactive) in assay [20]; > 100 µM (inactive) in [2]; 75 µM (inactive) in [3]; > 100 µM (inactive) in assay [4]; > 100 µM (inactive) in assay [5]. Moreover, the GI50 was > 100 µM (inactive) in assay [6]; 41.2 µM (inactive) in assay [7]; 67.9 µM (inactive) in [8]; 50.6 µM (inactive) in assay [10]; 31.3 µM (inactive) in assay [11]; 68.5 µM (inactive) in [12]. For the same compound, the GI50 in [13] is 58.9 µM (inactive); in assay [14] it was 89.9 µM (inactive); in [15] it was 36.4 µM (inactive); in assay [16], 41.8 µM (inactive); in [17], 60.4 µM (inactive); in assay [18], 37.1 µM (inactive).
With `O=C(O)c1cc2c(cc1S(=O)(=O)O)C1C(C3C2C2(Cl)C(Cl)=C(Cl)C3(Cl)C2(Cl)Cl)C2(Cl)C(Cl)=C(Cl)C1(Cl)C2(Cl)Cl` (configuration not stated), the GI50 in assay [1] is 39.8 µM (inactive); in [20], 27 µM (inactive); in assay [2], 30.2 µM (inactive); in [3] it was 72.9 µM (inactive); in [4] it was > 100 µM (inactive); in [5] it was 37.1 µM (inactive). The GI50 in [6] was 38.7 µM (inactive); in assay [8], 26.2 µM (inactive); in assay [9] it was 64.7 µM (inactive); in assay [10], 33.2 µM (inactive); in [11], 34.8 µM (inactive); in assay [12] it was 26.4 µM (inactive). Besides, the GI50 in [13] is 38.3 µM (inactive); in assay [14], 23.3 µM (inactive); in [15] it was 41.9 µM (inactive); in assay [16] it was > 100 µM (inactive); in assay [17], 51.4 µM (inactive); in assay [18], 27.6 µM (inactive). In assay [19], the GI50 is 34.6 µM (inactive).
Regarding `N#Cc1c(N)[nH]c2ccc(Sc3ccccc3)cc12`, the GI50 in assay [1] was 0.152 µM (active); in [20] it was 0.338 µM (active); in assay [2] it was 0.659 µM (active); in assay [3] it was 0.282 µM (active); in assay [4] it was 1.8 µM (inactive); in assay [5], 0.141 µM (active). Also, the GI50 is 0.675 µM (active) in assay [6]; 0.213 µM (active) in assay [7]; 0.456 µM (active) in [8]; 0.622 µM (active) in assay [10]; < 0.0711 µM (active) in assay [11]; 0.323 µM (active) in [12]. For the same compound, the GI50 was 0.297 µM (active) in assay [13]; 0.964 µM (active) in assay [14]; < 0.107 µM (active) in assay [15]; 0.216 µM (active) in assay [16]; 0.113 µM (active) in [17]; 0.143 µM (active) in [18]. Besides, the GI50 in assay [19] was 0.201 µM (active).
`CSc1cnn(CCC#N)c(=O)n1`: the GI50 in assay [1] was > 100 µM (inactive); in assay [2] it was > 100 µM (inactive); in assay [3], > 100 µM (inactive); in [4], > 100 µM (inactive); in assay [5], > 100 µM (inactive); in assay [7], 93.5 µM (inactive). Further, the GI50 in [8] was > 100 µM (inactive); in assay [9] it was > 100 µM (inactive); in [10] it was > 100 µM (inactive); in [11], 39.4 µM (inactive); in assay [12] it was > 100 µM (inactive); in [13], > 100 µM (inactive). The GI50 in assay [14] is > 100 µM (inactive); in [15], > 100 µM (inactive); in assay [16], > 100 µM (inactive); in assay [17], > 100 µM (inactive); in assay [18] it was 27.1 µM (inactive).

The values above are taken from ChEMBL document CHEMBL1201862, “PubChem BioAssay data set” (2004).
